The assay relates to human platelet aggregation (ADP-induced). Format: cell-based. As to conditions: human platelet rich plasma; ADP final concentration 0.5 mcg/mL; read-out: Inhibition of Human Platelet Aggregation IC50 Vs ADP.

≈ marks a conversion by molar mass, not a printed value.

Protocol: The aggregometer method of Born, C. […] Clin. Med. 1964, 64, 548-599 was used to assess the in vitro activity of the various compounds as to the inhibition of adenosine diphosphate (ADP) and collagen-induced platelet aggregation. The human volunteer donor's arm is cleansed with 70% ethyl alcohol. A sterile 20 ml syringe and needle are used to withdraw 20 ml of blood. The blood is immediately added to a test tube containing 3.8% sodium citrate to prevent clotting (1 part citrate to 9 parts blood).
Platelet rich plasma (PRP) was separated by centrifugation for 10 minutes at 1000 rpm (140 xg) from citrated (3.8%) human blood. All glassware used for preparation of PRP is silicon treated. ADP in final concentration of 0.5 mcg/mL or 0.05 mL of a collagen suspension prepared according to the method described by Evans, G., et al., J. Exp. Med., 1968, 128, 877-894 was used to induce aggregation. The various compounds tested were dissolved in dimethylsulfoxide (DMSO) so that 5 mcl added to the platelet rich plasma would yield the desired test concentration. Vehicle control trials were done and compared with aggregation induced in platelet rich plasma containing various concentrations of the test compounds. Dose response curves were obtained and Inhibitor Concentration (IC50) values calculated.

With `COC(=O)COc1cccc(CCc2nc(-c3ccccc3)c(-c3ccccc3)s2)c1` [Example 1, Methyl (3-[2-(4,5-diphenyl-2-thiazolyl)ethyl]phenoxy]acetate], the IC50 amounted to 0.41 µg/mL (≈ 0.955 µM).

With `O=C(O)COc1cccc(CCc2nc(-c3ccccc3)c(-c3ccccc3)s2)c1` [Example 2, [3-[2-(4,5-Diphenyl-2-thiazolyl)ethyl]phenoxy]acetic Acid], the 50% inhibitory concentration (IC50) is 0.36 µg/mL (≈ 0.866 µM).

A word on the IC50: it is the concentration that gives 50% inhibition.

For the origin of these results see US5077305A, “Thiazole carboxylic acids and esters” (Bristol-Myers Squibb Co., priority 1990, dated 1991).
